# Results from patent US11053204B2, “Pyrimidinyloxy benzene derivatives as herbicides” (FMC Corporation, priority 2015, dated 2021).
# Experiments:
# Type in all cases: in vivo
# [1] = system: kochia (Kochia scoparia); assay: Test A preemergence, visual injury rating; details: Bassia scoparia, pre-emergence, 240 h, 0 to 100 scale (0 no effect, 100 complete control), read-out: Kochia plant response rating
# In short: (§1)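 Pre- and postemergence greenhouse screen. Soil: loam + sand. Spray carrier: solvent mixture, non-phytotoxic, with surfactant. Post timing at 1–2 leaves, height 2–10 cm. Readout: visual injury on a 0–100 scale roughly 10 days after application, untreated plants as reference.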
# [2] = system: barnyardgrass (Echinochloa crus-galli); assay: Test A preemergence, visual injury rating; details: Echinochloa crus-galli, pre-emergence, 240 h, 0 to 100 scale (0 no effect, 100 complete control), read-out: Barnyardgrass plant response rating
# In short: as §1
# [3] = system: pigweed (Amaranthus retroflexus); assay: Test A preemergence, visual injury rating; details: Amaranthus retroflexus, pre-emergence, 240 h, 0 to 100 scale (0 no effect, 100 complete control), read-out: Pigweed plant response rating
# In short: as §1
# [4] = system: Italian ryegrass (Lolium multiflorum); assay: Test A preemergence, visual injury rating; details: Lolium multiflorum, pre-emergence, 240 h, 0 to 100 scale (0 no effect, 100 complete control), read-out: Ryegrass, Italian plant response rating
# In short: as §1
# [5] = system: giant foxtail (Setaria faberii); assay: Test A preemergence, visual injury rating; details: Setaria faberi, pre-emergence, 240 h, 0 to 100 scale (0 no effect, 100 complete control), read-out: Foxtail, Giant plant response rating
# In short: as §1
# [6] = system: ragweed (common ragweed, Ambrosia elatior); assay: Test A preemergence, visual injury rating; details: Ambrosia artemisiifolia, pre-emergence, 240 h, 0 to 100 scale (0 no effect, 100 complete control), read-out: Ragweed plant response rating
# In short: as §1
# [7] = system: ducksalad (Heteranthera limosa); assay: Test B flooded paddy test, plant response rating; details: Heteranthera limosa, 312 h; 250 g ai/ha; Flood; scale of 0 to 100 where 0 is no effect and 100 is complete control; 13 to 15 days
# In short: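 Test compounds are applied straight into paddy water held 3 cm above the soil surface, with that flood maintained for the whole test. After 13 to 15 days in the greenhouse, each species is scored visually relative to controls.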
# [8] = system: kochia (Kochia scoparia); assay: Test C postemergence, plant response rating; details: Bassia scoparia, post-emergence
# In short: (§2)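 Visual injury score, 0 = no effect, 100 = complete control, assigned against untreated controls after 13 to 15 d in the greenhouse. Compounds were applied in a surfactant-containing non-phytotoxic solvent mix, preemergence to seeded loam/sand or silt loam soil, or postemergence to 1- to 4-leaf plants (2 to 18 cm).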
# [9] = system: corn (Zea mays); assay: Test C postemergence, plant response rating; details: Zea mays, post-emergence
# In short: as §2
# [10] = system: nutsedge, yellow (yellow nutsedge, Cyperus esculentus); assay: Test C postemergence, plant response rating; details: Cyperus, post-emergence
# In short: as §2
# [11] = system: oat, wild (wild oat Avena fatua); assay: Test C postemergence, plant response rating; details: Avena fatua, post-emergence
# In short: as §2
# [12] = system: barnyardgrass (Echinochloa crus-galli); assay: Test C postemergence, plant response rating; details: Echinochloa crus-galli, post-emergence
# In short: as §2
# [13] = system: morningglory (Ipomoea coccinea); assay: Test C postemergence, plant response rating; details: Ipomoea, post-emergence
# In short: as §2
# [14] = system: lambsquarters (Chenopodium album); assay: Test C postemergence, plant response rating; details: Chenopodium album, post-emergence
# In short: as §2
# [15] = system: crabgrass, large (large crabgrass, Digitaria sanguinalis); assay: Test C postemergence, plant response rating; details: Digitaria sanguinalis, post-emergence
# In short: as §2
# [16] = system: ragweed (common ragweed, Ambrosia elatior); assay: Test C postemergence, plant response rating; details: Ambrosia artemisiifolia, post-emergence
# In short: as §2
# [17] = system: velvetleaf (Abutilon theophrasti); assay: Test C postemergence, plant response rating; details: Abutilon theophrasti, post-emergence
# In short: as §2
# [18] = 62 g ai/ha, scale 0 to 100 (0 no effect, 100 complete control)
# [19] = 125 g ai/ha, scale 0 to 100 (0 no effect, 100 complete control)
compound,measurement,setting,value
"O=C(OCCCC(F)(F)F)c1c(Br)cccc1Oc1ncc(Cl)cn1 [Compound 20, 4,4,4-trifluorobutyl 2-bromo-6-[(5-chloro-2-pyrimidinyl)oxy]benzoate]",pest or weed control at 125 g/ha,[1]; 125 g ai/ha,30%
same,pest or weed control at 500 g/ha,[1]; 500 g ai/ha,100%
same,pest or weed control at 125 g/ha,[2]; 125 g ai/ha,100%
same,pest or weed control at 500 g/ha,[2]; 500 g ai/ha,100%
same,pest or weed control at 125 g/ha,[3]; 125 g ai/ha,100%
same,pest or weed control at 500 g/ha,[3]; 500 g ai/ha,100%
same,pest or weed control at 125 g/ha,[4]; 125 g ai/ha,30%
same,pest or weed control at 500 g/ha,[4]; 500 g ai/ha,90%
same,pest or weed control at 125 g/ha,[5]; 125 g ai/ha,100%
same,pest or weed control at 500 g/ha,[5]; 500 g ai/ha,100%
same,pest or weed control at 125 g/ha,[6]; 125 g ai/ha,0%
same,pest or weed control at 500 g/ha,[6]; 500 g ai/ha,0%
same,pest or weed control at 250 g/ha,[7],30%
same,pest or weed control at 16 g/ha,"[8]; 16 g ai/ha, scale 0 to 100",95%
same,pest or weed control at 31 g/ha,"[8]; 31 g ai/ha, scale 0 to 100",95%
same,pest or weed control at 62 g/ha,[8]; [18],100%
same,pest or weed control at 125 g/ha,[8]; [19],100%
same,"Corn plant response rating (crop injury, 0 = no effect, 100 = complete kill) at 16 g/ha","[9]; 16 g ai/ha, scale 0 to 100",5%
same,"Corn plant response rating (crop injury, 0 = no effect, 100 = complete kill) at 31 g/ha","[9]; 31 g ai/ha, scale 0 to 100",10%
same,plant injury at 62 g/ha,[9]; [18],10%
same,plant injury at 125 g/ha,[9]; [19],20%
same,pest or weed control at 16 g/ha,"[10]; 16 g ai/ha, scale 0 to 100",0%
same,pest or weed control at 31 g/ha,"[10]; 31 g ai/ha, scale 0 to 100",5%
same,pest or weed control at 62 g/ha,[10]; [18],5%
same,pest or weed control at 125 g/ha,[10]; [19],10%
same,pest or weed control at 16 g/ha,"[11]; 16 g ai/ha, scale 0 to 100",0%
same,pest or weed control at 31 g/ha,"[11]; 31 g ai/ha, scale 0 to 100",0%
same,pest or weed control at 62 g/ha,[11]; [18],5%
same,pest or weed control at 125 g/ha,[11]; [19],5%
same,pest or weed control at 16 g/ha,"[12]; 16 g ai/ha, scale 0 to 100",10%
same,pest or weed control at 31 g/ha,"[12]; 31 g ai/ha, scale 0 to 100",10%
same,pest or weed control at 62 g/ha,[12]; [18],10%
same,pest or weed control at 125 g/ha,[12]; [19],20%
same,pest or weed control at 16 g/ha,"[13]; 16 g ai/ha, scale 0 to 100",75%
same,pest or weed control at 31 g/ha,"[13]; 31 g ai/ha, scale 0 to 100",65%
same,pest or weed control at 62 g/ha,[13]; [18],70%
same,pest or weed control at 125 g/ha,[13]; [19],70%
same,pest or weed control at 16 g/ha,"[14]; 16 g ai/ha, scale 0 to 100",65%
same,pest or weed control at 31 g/ha,"[14]; 31 g ai/ha, scale 0 to 100",80%
same,pest or weed control at 62 g/ha,[14]; [18],70%
same,pest or weed control at 125 g/ha,[14]; [19],85%
same,pest or weed control at 16 g/ha,"[15]; 16 g ai/ha, scale 0 to 100",10%
same,pest or weed control at 31 g/ha,"[15]; 31 g ai/ha, scale 0 to 100",10%
same,pest or weed control at 62 g/ha,[15]; [18],15%
same,pest or weed control at 125 g/ha,[15]; [19],15%
same,pest or weed control at 16 g/ha,"[16]; 16 g ai/ha, scale 0 to 100",30%
same,pest or weed control at 31 g/ha,"[16]; 31 g ai/ha, scale 0 to 100",50%
same,pest or weed control at 62 g/ha,[16]; [18],55%
same,pest or weed control at 125 g/ha,[16]; [19],60%
same,pest or weed control at 16 g/ha,"[17]; 16 g ai/ha, scale 0 to 100",20%
same,pest or weed control at 31 g/ha,"[17]; 31 g ai/ha, scale 0 to 100",50%
same,pest or weed control at 62 g/ha,"[17]; 62 g ai/ha, scale 0 to 100 (0 no effect, 100 complete control), read-out: Velvetleaf plant response rating",40%
same,pest or weed control at 125 g/ha,[17]; [19],70%
